From a melting point compilation (Tetko et al.; mined from patent text by program, amines drawn as free bases though some values may be those of a salt) come the findings set out here.

A word on the melting point: it is the temperature, or range, at which the solid turns liquid. Turning to `CC(=O)C=Cc1c(-c2ccccc2)nn2ccccc12`, the melting point is 134 to 136 °C. Next, `CCCc1c(-c2ccc(Cl)cc2)n[nH]c1-c1cccs1`: 129 to 132 °C. Next, `O=C1c2cccc3c4c(cc(c23)C(=O)N1O)OCOC4`: above 350 °C. The figure for `COCc1c(-c2ccc(O)cc2)oc2ccccc2c1=O` is 237 to 239 °C; for `CC(C)(O)c1ccc(CC(=O)Nc2cccnc2Oc2ccc(F)cc2)cc1` it is 135 to 137 °C; for `CC(=O)Nc1cc(S(=O)(=O)c2ccccc2)ccc1NC(=O)C(C)(O)C(F)(F)F` (stereo not drawn) it is 205 to 207 °C.

`Cc1c(Br)ccc(S(C)(=O)=O)c1C=NO` displayed a melting point of 192 to 194 °C. `CCCCCc1ccc(C(=O)Cc2cccc(C(=O)O)c2)cc1` yielded a melting point of 109 to 111 °C. The figure for `Cn1c(C(F)(F)F)cc(=O)n(-c2cc(N)c(Cl)cc2F)c1=O` is 132 to 135 °C.

In turn, `[N-]=[N+]=C1C(=O)CCc2ccccc21` yielded a melting point of 42.5 to 44.2 °C.

Take `COc1cc(-c2nn(C)c(C(F)(F)F)c2Br)c(F)cc1Cl`: the melting point lay within 85 to 86 °C. For `Clc1ccc(OCc2ccc3ccccc3n2)cc1`, the melting point fell in the range of 92 to 94 °C. For `CCOC(=O)CCCCCOC(=O)c1c(I)c(NC(C)=O)c(I)c(NC(C)=O)c1I`, the melting point lay in the range of 235 to 238 °C. Next, `NCC1CCN(c2nccc(C(N)=O)n2)CC1`: 144 to 148 °C. Next, `O=C1NC(=NC2CCCCC2)C(c2ccc(Br)cc2)N1c1ccc2[nH]cnc2c1` (stereo not drawn): 205 °C; `Cc1c(-c2ccncc2)[nH]c(-c2ccncc2)c1C(=O)CC(C)C`: 199 to 201 °C; `CCOC(=O)c1nc2ccc(OC)cc2nc1Cl`: 75 °C. Next, `CCOC(=O)c1sc2cc(OCc3ccccc3)ccc2c1Sc1ccccc1`: 96 to 97 °C; `Oc1ccc(C(=Cc2ccccc2)c2ccc(O)c(O)c2O)c(O)c1O`: 142 to 143 °C. For `COc1cc(OC)c(CC(=O)c2ccc(C(C)C)c(OS(N)(=O)=O)c2C(C)C)c(OC)c1`, the melting point was 159 to 163 °C. Next, `CCSc1nsc(NC(=O)N(C)C)c1C#N`: 198 °C. Next, `NS(=O)(=O)c1ccc(NN=Cc2ccc(Cl)cc2Cl)cc1`: 219 to 221 °C; `C(=NNc1nc(OCCc2ccccn2)nc(N2CCOCC2)n1)c1c[nH]c2ccccc12`: 158 to 161 °C.

On to `CN(C)CCOc1ccc(C#N)cn1`, for which the melting point was 58 °C. The figure for `CC(=O)OC1CSC(Oc2cccc(-c3ccccn3)c2)C(OC(C)=O)C1OC(C)=O` (stereo not drawn) is 68 to 97 °C; for `CN1C(=O)N(c2ccc(C#N)c(C(F)(F)F)c2)C(=O)C1(CO)c1ccccc1` (stereo not drawn) it is 160 °C; for `CC(=O)OC[C@@H]1O[C@H](n2c(NC(C)C)nc3c(Cl)cccc32)[C@@H](OC(C)=O)[C@H]1OC(C)=O` it is 225 to 227 °C. As to `Cc1ccnc(-c2ccc(C)c(-c3ccccc3)n2)n1`, the melting point is 105 °C. Next, `CCC1(CC)C(=O)N(CC(O)Cc2cc(C)c(O)c(C(C)(C)C)c2)C(=O)N(CC(O)Cc2cc(C)c(O)c(C(C)(C)C)c2)C1=O` (stereo not drawn): 147 to 148 °C; `OC1CSC(Oc2cc(-c3cccnc3)ccc2Cl)C(O)C1O` (stereo not drawn): 172 °C. Next, `Cc1cc2c(cc1Cl)C(Br)(c1ccccc1Cl)C(=O)N2` (stereo not drawn): 109 to 111 °C; `COc1ccc(-n2cc(CCCOc3c(CC(=O)O)cccc3OC)c(C(C)C)n2)nn1`: 124 to 125 °C; `Cn1nc(Br)c([N+](=O)[O-])c1NCc1ccccc1`: 133 °C. The figure for `CC(C)(C)NC(=O)[C@@H]1Cc2ccccc2CN1C(=O)OCc1ccccc1` is 105 to 106 °C; for `Cc1ccc(-c2cccc(/C=C/C(=O)Nc3ccc(CN(C)CC#N)cc3)c2)cc1` it is 163 to 165 °C. As to `COC(=O)CCc1cc2cc(Cl)ccc2n1S(=O)(=O)c1ccc2c(c1)CCN2C(C)=O`, the melting point amounted to 129 °C. The figure for `Cc1cccc(-c2cc(=O)c(C)c(-c3ccccc3)n2-c2ccccc2F)c1` is 211 to 214 °C; for `COc1cc(OC)c2c(=O)[nH]c(-c3cc(C)c(OCCN4C(=O)NC(c5ccccc5)C4=O)c(C)c3)nc2c1` (stereo not drawn) it is 220 to 221 °C; for `Oc1ccc(Nc2ccc3cc(O)ccc3c2)cc1` it is 195 to 196 °C. The figure for `Cc1nc(-c2cnn(-c3c(Cl)cc(C(F)(F)F)cc3Cl)n2)[nH]c1S(=O)(=O)Cl` is 254 to 255 °C; for `CCNC(=O)/C=C(C)/C=C/C=C(C)/C=C/c1c(C)cc(OC(F)(F)F)c(C)c1C` it is 198 to 200 °C; for `CCCCCCCCCCCCCCC(CCCCCCCCCCCCCC)C(=O)O` it is 73.5 to 75 °C. In turn, `CCc1nc2cc(C(C)=O)ccc2n1-c1ccc(CCOC(=O)NS(=O)(=O)c2ccc(C)cc2)cc1` displayed a melting point of 188 to 190 °C. Next, `Cn1nc2c(cc1=O)CCSc1ccccc1-2`: 139 to 140 °C. The figure for `O=C1c2ccccc2COc2ccc(CCCOC(=O)C(F)(F)F)cc21` is 40.5 to 41 °C; for `O=C1C(c2cc3c(cc2O)OCCO3)c2ccccc2N1C(c1ccccc1)c1ccccc1` (stereo not drawn) it is 157 to 160 °C. The figure for `CCOC(=O)/C=C(C)/C=C/C=C(\C)C1=Cc2cc(Cl)cc(C)c2OC1` is 107 °C; for `CCN(CC)CC(=O)N1CCn2c(c(-c3ccccc3)c3cc(Cl)ccc32)C1` it is 117 to 119 °C; for `CC(C)OC(=O)c1ccc2c(c1)ncn2-c1cccc(Br)c1` it is 102 to 104 °C. Compound `C=CCSc1nsc(S)n1` gave a melting point of 107 to 108 °C. Regarding `Cn1c(Br)c(Br)c(C#N)c1Br`, the melting point fell in the range of 151 to 152 °C. Compound `COc1ccc(Cc2oc3c(c2C)C(=O)C(C)=C(C)C3=O)cc1` had a melting point of 111 to 113 °C. The figure for `Cc1c(C(=O)O)ccc2c1CCCO2` is 207 to 208 °C.

`c1cnc2[nH]cc(CN3CCN(c4ccc5[nH]ccc5c4)CC3)c2c1` displayed a melting point of 232 to 233 °C. Next, `Cc1c(NC(=O)c2ccc(-c3ccc(C(F)(F)F)cc3)cc2)ccc2cc(CN3CCCC3)cnc12`: 220 to 222 °C. The figure for `CCOC(=O)C(=NO)c1ccc(Oc2ccccc2)cc1` is 131 to 132 °C; for `COc1ccc2c(c1)cc(-c1nnn(Cc3cccc(OCc4ccc5ccccc5n4)c3)n1)c(=O)n2C` it is 125 to 127 °C; for `CON=C(C1=Nc2ccc(Cl)cc2C(c2ccccc2F)=[N+]([O-])C1)[N+](=O)[O-]` it is 207 to 209 °C. As for `COc1ccc(-n2nc(Sc3ccccc3)c(C)c(C#N)c2=O)cc1`, the melting point lay within 179 to 180 °C.

Consider `Cn1c(C(F)(F)F)cc(=O)n(-c2cc(S(=O)(=O)NC(=O)OCc3ccccc3)c(Cl)cc2F)c1=O`, for which the melting point lay within 231 to 232 °C. Next, `CCC=CCC=CCC=CCCCCCCCC(=O)OCC(COC(=O)CCCCCCCC=CCC=CCC=CCC)OCn1cnc2c(=O)[nH]c(N)nc21` (stereo not drawn): 242 to 243 °C; `CSc1ncc(OCc2cccnc2)c(=O)[nH]1`: 186 to 187 °C; `Cc1ccc(-c2ccccc2NC(=O)NN)cc1`: 148 to 151 °C.

In turn, `CN(C)CCCNC(=O)c1cccc([N+](=O)[O-])c1Cl` gave a melting point of 122 to 125 °C. `CCCS(=O)(=O)c1ccc(NS(=O)(=O)c2cccs2)c2[nH]c(C(=O)O)cc12` displayed a melting point of 247 to 248 °C. Next, `Cc1cccc(-c2n[nH]cc2-c2ccc(F)c(-c3ccc(S(N)(=O)=O)s3)c2)n1`: 125 °C; `Cc1nc2[nH]c(=O)[nH]c2cc1-c1ccc(NC(=O)C(F)(F)F)cc1`: above 300 °C; `O=[N+]([O-])c1ccc(Sc2cccc3cnccc23)nc1`: 115 to 117 °C. The figure for `CC(C)n1nc(-c2c(-c3ccccc3)nn3ccc(OCCN4CCCC4)cc23)ccc1=O` is 149 to 150 °C; for `O=C1OC2(CCN(CCC(O)c3ccccc3)CC2)c2ccccc21` (stereo not drawn) it is 144 to 146 °C. Compound `CC(C)n1c(-c2ccccc2)nc(-c2ccc(F)cc2)c1C=O` registered a melting point of 130 to 134 °C. Regarding `CCNc1ccc2ccccc2c1-c1c(P(c2ccccc2)c2ccccc2)ccc2ccccc12`, the melting point was 83.1 °C. The figure for `Cc1nc(-c2ccccc2)c(C)c(O)c1C(=O)Nc1nccs1` is 266 °C; for `CC(C)c1n[nH]c2c(NCc3ccco3)ncnc12` it is 179 to 182 °C. Next, `CS(=O)(=O)Cc1ccc(Oc2cc(OC3CCOCC3)c3[nH]c(C4=NCC(CC(N)=O)S4)cc3c2)cn1` (stereo not drawn): 164 to 167 °C; `CS(=O)C(C)(O)c1ccc(-c2ccccc2)cc1` (stereo not drawn): 160 to 162 °C. Next, `O=P1(C2CCCC2)c2ccccc2CN1c1ccccc1` (stereo not drawn): 123 to 125 °C; `CN(C)C1=C(Cl)C(=O)NC1=Nc1ccccc1`: 135 to 138 °C; `CCOC(=O)c1cnn(C)c1C(=O)Nc1ccn2nc(-c3ccnc(F)c3)nc2c1`: 220 to 230 °C. With `CC1(C)c2ccccc2C(C)(C)C1(CC#N)SN=O`, the melting point was in the range of 67 to 69 °C. The figure for `Cc1ccc(C(=O)Cn2c(-n3ncnc3N)nc3ccccc32)cc1C` is 190 to 193 °C; for `O=C(O)COCCCCS(=O)(=O)c1cnc(-c2ccccc2)c(-c2ccccc2)n1` it is 123 to 125 °C; for `CS(=O)(=O)c1ccc(-c2nn(Cc3ccc(Cl)cc3Cl)c(=O)cc2-c2ccc(Cl)cc2)cc1` it is 233 to 234 °C.

`O=C(O)Cc1cccc(C(=O)c2cccs2)c1Cl` had a melting point of 112 °C. The figure for `COc1ccc(C2C(C(=O)c3ccc(C)cc3)=C(O)C(=O)N2c2ccc(C)nn2)cc1` (stereo not drawn) is 266 °C. For `CC(C)(C)OC(=O)Nc1ccccc1NC(=O)c1ccc(CBr)cc1`, the melting point fell in the range of 282 to 283 °C.

`OCCN1CCN(C2=Nc3cc(F)ccc3Nc3ccsc32)CC1` came in with a melting point of 205 to 210 °C.

`C=CC1(C=C)OC(C(=O)O)Oc2ccc(Cl)cc21` (stereo not drawn) gave a melting point of 144 °C.
